Measured values reported in paper PMC11050599, “Novel Tetracyclic Azaphenothiazines with the Quinoline Ring as New Anticancer and Antibacterial Derivatives of Chlorpromazine” (International Journal of Molecular Sciences, 2024).
≈ marks a conversion by molar mass, not a printed value. Where two headings read alike, the source gives them in different places.

Tests used:
A549 (lung cancer) = test: MTT assay, A549 cells; type: cell-based, human; conditions: for IC50: Homo sapiens, A549, MTT, 72 h, mean SD, read-out: IC50 A549; for SI A549: SI = IC50 for normal cell line (HaCaT)/IC50 cancer cell line
Protocol: (§1) The human cell lines, such as A549 (lung cancer), MDA-MB-231 (breast cancer), MiaPaca-2 (pancreatic cancer), PC3 (metastatic prostate cancer), HCT-116 (colon carcinoma), and HaCaT (immortalized keratinocytes), were sourced from the American Type Culture Collection (ATCC) in Rockville, USA. Culturing conditions varied as follows: HCT116 cells were cultured in MEM (ThermoSci, Waltham, MA, USA), A549, MDA-MB-231, MiaPaca, HaCaT cells in DMEM High Glucose and PC3 cells were cultured in RPMI (Biowest SAS, Nuaillé, France). The growth medium consisted of 10% fetal bovine serum (FBS, Sigma-Aldrich, St. Louis, MO, USA), 20 mM HEPES (Biowest, Nuaillé, France), and antibiotics (100 U/mL of penicillin and 100 μg/mL of streptomycin) from Gibco, Grand Island, NY, USA. […] These compounds were added to 96-well plates containing study cells (1 × 10^4 cells per well) and incubated for 72 h. […] Cell absorbance results were incorporated into the formula for calculating the relative MTT level (%), enabling the assessment of cell viability following exposure to the test compounds. The cell viability percentage represents the MTT reduction in cells treated with the test compounds compared to the control sample, where only the medium was added to the cells.

[1] = test system: MDA-MB-231 (breast cancer); test: MTT assay, MDA-MB-231 cells; type: cell-based, human; conditions: for IC50: Homo sapiens, MDA-MB-231, MTT, 72 h, MDA-MB231, read-out: IC50 MDA; for SI MDA: SI = IC50 for normal cell line (HaCaT)/IC50 cancer cell line
Protocol: as §1

[2] = test system: HaCaT (immortalized human keratinocytes); test: MTT assay, HaCaT normal cells; type: cell-based; conditions: Homo sapiens, HaCaT, MTT, 72 h, normal cells
Protocol: as §1

[3] = test system: MiaPaCa-2 (pancreas cancer); test: MTT assay, MiaPaCa-2 cells; type: cell-based, human; conditions: for IC50: Homo sapiens, MIA PaCa-2, MTT, 72 h, read-out: IC50 MiaPaCa-2; for SI MiaPaCa-2: SI = IC50 for normal cell line (HaCaT)/IC50 cancer cell line
Protocol: as §1

PC3 (prostate cancer) = test: MTT assay, PC3 cells; type: cell-based, human; conditions: for IC50: Homo sapiens, PC-3, MTT, 72 h, read-out: IC50 PC3; for SI PC3: SI = IC50 for normal cell line (HaCaT)/IC50 cancer cell line
Protocol: as §1

HCT116 (colon cancer) = test: MTT assay, HCT116 cells; type: cell-based, human; conditions: for IC50: Homo sapiens, HCT-116, MTT, 72 h, read-out: IC50 HCT116; for SI HCT116: SI = IC50 for normal cell line (HaCaT)/IC50 cancer cell line
Protocol: as §1

E. coli ATCC 25922 = test: MIC broth microdilution; type: cell-based; conditions: Escherichia coli, ATCC25922; 19 h, 35 °C; read-out: MIC E. coli ATCC 25922
Source text: (§2) To evaluate the antibacterial effectiveness of chloroquinobenzothiazine derivatives, various bacterial strains from international microbe collections such as the American Type Culture Collection (ATCC) and the National Collection of Type Culture (NCTC) were examined, alongside a panel of clinical rods. This included two Gram-negative organisms, E. coli ATCC 25922 and P. aeruginosa ATCC 15442, and a series of six Gram-positive strains: S. aureus NCTC 4163; S. aureus ATCC 29213, 25923, and 6538; and S. epidermidis ATCC 12228 and 35984. […] The MIC was determined using the two-fold serial broth microdilution method in 96-well microtitration plates containing Mueller-Hinton II broth medium (Becton Dickinson, Franklin Lakes, NJ, USA). The final inoculum for all tested bacteria was adjusted to […] (colony-forming units per milliliter). The stock solution of the tested compounds was prepared in dimethyl sulfoxide (DMSO) and diluted to a maximum of 1% solvent content with a sterile medium.

P. aeruginosa ATCC 15442 = test: MIC broth microdilution; type: cell-based; conditions: Pseudomonas aeruginosa, ATCC15442; 19 h, 35 °C; read-out: MIC P. aeruginosa ATCC 15442
Source text: as §2

S. aureus ATCC 25923 = test: MIC broth microdilution; type: cell-based; conditions: Staphylococcus aureus, ATCC25923; 19 h, 35 °C; read-out: MIC S. aureus ATCC 25923
Source text: as §2

S. aureus ATCC 29213 = test: MIC broth microdilution; type: cell-based; conditions: Staphylococcus aureus, ATCC29213; 19 h, 35 °C; read-out: MIC S. aureus ATCC 29213
Source text: as §2

S. aureus ATCC 6538 = test: MIC broth microdilution; type: cell-based; conditions: Staphylococcus aureus, ATCC6538; 19 h, 35 °C; read-out: MIC S. aureus ATCC 6538
Source text: as §2

S. aureus NCTC 4163 = test: MIC broth microdilution; type: cell-based; conditions: Staphylococcus aureus, NCTC4163; 19 h, 35 °C; read-out: MIC S. aureus NCTC 4163
Source text: as §2

[4] = test system: S. epidermidis ATCC 12228; test: MIC broth microdilution; type: cell-based; conditions: Staphylococcus epidermidis, ATCC12228; 19 h, 35 °C; read-out: MIC S. epidermidis ATCC 12228
Source text: as §2

[5] = test system: S. epidermidis ATCC 35984; test: MIC broth microdilution; type: cell-based; conditions: Staphylococcus epidermidis, ATCC35984; 19 h, 35 °C; read-out: MIC S. epidermidis ATCC 35984
Source text: as §2

HCT116 cells [6] = test: Annexin V-FITC/PI apoptosis flow cytometry, HCT116; type: cell-based, human
Protocol: (§3) To analyze the number of cells in early apoptosis, late apoptosis, or necrosis, A549, MiaPaca-2, and HCT-116 cell lines were cultured in 6-well plates with a seeding density of 1 × 10^5 cells per well. These cells were then treated with selected compounds (4, 5, and 8) at their respective IC50 concentrations and incubated for 72 h. Subsequently, a commercially available kit, the FITC: Annexin V Apoptosis Detection Kit I from BD Biosciences Pharmingen in San Jose, CA, USA, was utilized to assess apoptosis. After 72 h the cells were harvested, washed, and labeled with Annexin V-FITC and propidium iodide (PI) following the manufacturer’s protocol (Becton Dickinson), as previously described. The stained cells were analyzed by flow cytometry. The cells were identified as early apoptotic (Annexin V+/PI−) or late apoptotic/necrotic (Annexin V+/PI+).

HCT116 cells [7] = test: Cell cycle analysis by flow cytometry, HCT116; type: cell-based, human; conditions: IC50, 24 h, compared to the control
Protocol: In brief, cells were seeded at a density of 1 × 10^5 cells/well on a six-well plate and allowed to adhere for 24 h. […] Both population cells (the attached and detached) were collected and centrifuged at 400× g for 5 min at 4 °C. After centrifugation, the cells were washed twice with 0.9% NaCl and subsequently fixed in 500 μL of 70 % cold ethanol overnight.
Before analysis, the fixed cells underwent another centrifugation step at 850× g for 5 min at 4 °C and were washed with PBS. Following the washes, the cells were incubated with 50 μL of RNase (100 μg/mL) and 200 μL of propidium iodide (PI) (50 μg/mL) at 37 °C for 30 min in the dark. Finally, 100 μL of PBS was added to each sample. Flow cytometry (Becton Dickinson FACS Verse, Franklin Lakes, NJ, USA) was then used to analyze the cell cycle distribution, identifying cells in various stages including sub-G1, G0/G1, S, and G2/M phases. Each assay was performed in quadruplicate.

A549 cells = test: Annexin V-FITC/PI apoptosis flow cytometry, A549; type: cell-based, human
Protocol: as §3

[8] = representative dot plot, Figure 4C, IC50, 72 h
[9] = representative dot plot, Figure 4A, IC50, 72 h

SMILES | IC50 (A549 (lung cancer)) [µM] | SI A549 (A549 (lung cancer)) | IC50 [1] [µM] | SI MDA [1] | IC50 ([2]; read-out: IC50 HaCaT (Table 3)) [µM] | IC50 [3] [µM] | SI MiaPaCa-2 [3] | IC50 (PC3 (prostate cancer)) [µM] | SI PC3 (PC3 (prostate cancer)) | IC50 (HCT116 (colon cancer)) [µM] | SI HCT116 (HCT116 (colon cancer)) | MIC (E. coli ATCC 25922) [µg/mL] | MIC (P. aeruginosa ATCC 15442) [µg/mL] | MIC (S. aureus ATCC 25923) [µg/mL] | MIC (S. aureus ATCC 29213) [µg/mL] | MIC (S. aureus ATCC 6538) [µg/mL] | MIC (S. aureus NCTC 4163) [µg/mL] | MIC [4] [µg/mL] | MIC [5] [µg/mL] | other results
Clc1ccc2c(c1)N(CCN1CCCC1)c1nc3ccccc3cc1S2 [Compound 9, 8-Chloro-6-(2-(pyrrolidin-1-yl)ethyl)-quino[3,2-b]benzo[1,4]thiazine] | 17.4 ± 4.1 | 5.7 | 77.1 ± 1.6 | 1.3 | > 100 | 57.4 ± 9.6 | 1.7 | 77.1 ± 9.4 | 1.3 | 17.5 ± 1.4 | 5.7 | > 256 | > 256 | 16 (≈ 41.9 µM) | 16 (≈ 41.9 µM) | 16 (≈ 41.9 µM) | 16 (≈ 41.9 µM) | 16 (≈ 41.9 µM) | 16 (≈ 41.9 µM) | 
CS(=O)(=O)NCCCCN1c2cc(Cl)ccc2Sc2cc3ccccc3nc21 [Compound 23, N-(4-(8-Chloroquino[3,2-b]benzo[1,4]thiazin-6-yl)butyl)methanesulfonamide] | 30.5 ± 8.3 | 3.3 | > 100 |  | > 100 | 98.4 ± 5.6 | 1.0 | > 100 | 1.0 | 0.7 ± 0.08 | 143 | > 256 | > 256 | > 256 | > 256 | > 256 | > 256 | > 256 | > 256 | cells in late apoptosis/necrosis, HCT116 (HCT116 cells [6]; compound at IC50, 72 h): 93%; HCT-116: Alive (HCT116 cells [6]; [8]): 3.42%; HCT-116: Early Apoptotic (HCT116 cells [6]; [8]): 0.76%; HCT-116: Necrotic (HCT116 cells [6]; [8]): 3.85%; HCT-116: Necrotic/Late Apoptotic (HCT116 cells [6]; [8]): 91.97%; increase in the cell amount at the sub-G1 phase, HCT116 (HCT116 cells [7]): 11 fold; increase in the number of cells in the G2/M phase, HCT116 (HCT116 cells [7]): approximately 1.3 fold; increase in the number of cells in the S phase, HCT116 (HCT116 cells [7]): approximately 2 fold
Cc1ccc(S(=O)(=O)NCCCCN2c3cc(Cl)ccc3Sc3cc4ccccc4nc32)cc1 [Compound 25, N-(4-(8-Chloroquino[3,2-b]benzo[1,4]thiazin-6-yl)butyl)-4-methylbenzenesulfonamide] | 9.45 ± 1.3 |  | > 100 | 1.0 | < 100 | > 100 | 1.0 | 48.6 ± 4.7 | 2.0 | > 100 | 1.0 | > 256 | > 256 | > 256 | > 256 | > 256 | > 256 | > 256 | > 256 | IC50 ([2]; read-out: IC50 HaCaT (Table 4)): > 100 µM; cells in late apoptosis or necrosis, A549 (A549 cells; compound at IC50, 72 h): 82%; A549: Alive (A549 cells; [9]): 16.32%; A549: Early Apoptotic (A549 cells; [9]): 0.60%; A549: Necrotic (A549 cells; [9]): 32.75%; A549: Necrotic/Late Apoptotic (A549 cells; [9]): 50.34%
